In ChEMBL document CHEMBL1142797, “2-Aminoquinazoline inhibitors of cyclin-dependent kinases” (Bioorg Med Chem Lett, 2005):

Experiments:
[1] = molecular target: Cyclin-dependent kinase 1/cyclin B1 (Homo sapiens, UniProt P06493); test: Inhibitory concentration against CDK1/ Cyclin B; format: protein-complex assay
[2] = Inhibitory concentration against CDK2/ Cyclin A
[3] = molecular target: Cyclin-dependent kinase 4/cyclin D1 (Homo sapiens, UniProt P11802); test: Inhibitory concentration against CDK4/ Cyclin D; format: protein-complex assay
Cyclin-dependent kinase 4/cyclin D1, sequence (P11802 whole entry): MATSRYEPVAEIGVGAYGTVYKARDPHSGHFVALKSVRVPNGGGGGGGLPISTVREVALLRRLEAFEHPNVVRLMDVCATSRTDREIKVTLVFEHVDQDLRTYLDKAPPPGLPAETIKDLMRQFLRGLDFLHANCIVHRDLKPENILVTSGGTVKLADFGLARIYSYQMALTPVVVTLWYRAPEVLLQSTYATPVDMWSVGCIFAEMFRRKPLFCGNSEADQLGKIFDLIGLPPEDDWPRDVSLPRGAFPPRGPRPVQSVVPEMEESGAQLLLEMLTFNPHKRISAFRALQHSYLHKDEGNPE
Cyclin-dependent kinase 4/cyclin D1, sequence (P24385 whole entry, further chain): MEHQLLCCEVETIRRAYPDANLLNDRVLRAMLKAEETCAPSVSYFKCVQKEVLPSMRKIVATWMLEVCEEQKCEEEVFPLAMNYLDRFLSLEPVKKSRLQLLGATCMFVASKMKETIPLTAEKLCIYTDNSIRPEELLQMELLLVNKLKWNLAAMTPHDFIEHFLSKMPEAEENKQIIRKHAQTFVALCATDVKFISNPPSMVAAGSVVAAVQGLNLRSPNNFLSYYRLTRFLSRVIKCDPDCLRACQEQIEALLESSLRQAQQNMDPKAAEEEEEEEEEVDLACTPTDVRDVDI

[4] = molecular target: Cyclin-dependent kinase 2/cyclin E1 (Homo sapiens, UniProt P24941); test: Inhibitory concentration against CDK2/ Cyclin E; format: protein-complex assay
[5] = Distribution coefficient at pH 7.4; format: physicochemical; settings: octanol/water
[6] = system: HCT-116; test: Antiproliferative activity against HCT116 cell lines of human; format: functional, cell-based

Cyclin-dependent kinase 1/cyclin B1, sequence (P06493 whole entry): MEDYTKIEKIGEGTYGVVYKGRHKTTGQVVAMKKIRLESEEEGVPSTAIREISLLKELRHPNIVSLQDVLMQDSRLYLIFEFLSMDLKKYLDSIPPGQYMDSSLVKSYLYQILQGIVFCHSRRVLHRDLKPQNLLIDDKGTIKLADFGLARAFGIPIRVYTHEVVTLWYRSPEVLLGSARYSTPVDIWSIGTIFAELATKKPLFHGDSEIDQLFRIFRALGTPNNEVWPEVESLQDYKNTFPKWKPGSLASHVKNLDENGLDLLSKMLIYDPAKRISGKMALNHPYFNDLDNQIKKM
Cyclin-dependent kinase 1/cyclin B1, sequence (P14635 whole entry, further chain): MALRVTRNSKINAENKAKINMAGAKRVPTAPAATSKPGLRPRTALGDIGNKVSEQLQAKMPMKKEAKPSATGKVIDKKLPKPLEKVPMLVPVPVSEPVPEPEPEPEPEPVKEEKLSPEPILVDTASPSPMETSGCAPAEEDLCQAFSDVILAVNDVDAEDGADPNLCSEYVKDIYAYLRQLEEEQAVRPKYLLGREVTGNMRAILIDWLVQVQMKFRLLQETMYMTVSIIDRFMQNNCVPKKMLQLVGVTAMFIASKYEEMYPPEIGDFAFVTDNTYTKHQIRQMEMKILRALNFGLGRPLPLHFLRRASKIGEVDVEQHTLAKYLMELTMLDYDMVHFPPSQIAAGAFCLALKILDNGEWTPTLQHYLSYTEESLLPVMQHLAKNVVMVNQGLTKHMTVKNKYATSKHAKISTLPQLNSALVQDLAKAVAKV

IC50 [1] | IC50 [3] | IC50 [4] | logD [5] | IC50 [6] | Structure (SMILES) | IC50 [2]
1.94 µM | 0.003 µM | 0.635 µM | – | – | Oc1ccc2cnc(Nc3ccc(N4CCOCC4)cc3)nc2c1C1CCCC1 | 0.18 µM
– | – | – | – | – | COc1ccc2cnc(Nc3ccc(N4CCNCC4)cc3)nc2c1C1CCCC1 | 0.028 µM
– | – | – | – | – | CC(C)c1c(O)ccc2cnc(Nc3ccccc3)nc12 | 0.25 µM
> 5 µM | 4.13 µM | > 5 µM | 3.77 | – | COc1cc(C)c2cnc(Nc3ccc(N4CCN(C(C)=O)CC4)cc3)nc2c1C1CCCC1 | > 5 µM
> 5 µM | – | – | – | – | COc1ccc2cnc(Nc3ccc(N4CCN(C(C)=O)CC4)cc3)nc2c1C1CCCC1 | –
– | – | – | – | – | COc1ccc2cnc(Nc3ccc(N4CCOCC4)cc3)nc2c1C(C)C | 0.665 µM
0.743 µM | 0.007 µM | 0.655 µM | – | – | COc1ccc2cnc(Nc3ccc(N4CCNCC4)c(F)c3)nc2c1C(C)C | 0.141 µM
– | – | – | – | – | COc1ccc2cnc(Nc3ccc(N4CCNCC4)cc3)nc2c1C(C)C | 0.185 µM
– | – | – | – | – | COc1ccc2cnc(Nc3ccc(N4CCNCC4)c(F)c3)nc2c1C1CCCC1 | 0.062 µM
> 5 µM | 0.02 µM | > 5 µM | 1.39 | 0.1 µM | Cc1cc(O)c(C2CCCC2)c2nc(Nc3ccc(N4CCNCC4)cc3)ncc12 | > 5 µM
0.801 µM | 0.166 µM | 0.65 µM | – | – | COc1ccc2cnc(Nc3ccccc3)nc2c1C1CCCC1 | 0.202 µM
– | – | – | – | – | COc1ccc2cnc(Nc3ccc(N4CCC(N)C4)cc3)nc2c1C(C)C (stereo unspecified) | 0.296 µM
> 5 µM | 0.055 µM | > 5 µM | 2.32 | – | COc1cc(C)c2cnc(Nc3ccc(N4CCNCC4)cc3)nc2c1C1CCCC1 | > 5 µM
– | – | – | – | – | COc1ccc2cnc(Nc3ccccc3)nc2c1C(C)C | 0.253 µM
– | – | – | – | – | COc1ccc2cnc(Nc3ccc(N4CCN(C(=O)CN)CC4)cc3)nc2c1C1CCCC1 | 0.095 µM
– | – | – | – | – | COc1ccc2cnc(Nc3ccc(N4CCN(C(=O)CN)CC4)cc3)nc2c1C(C)C | 0.191 µM
0.03 µM | 0.001 µM | 0.32 µM | – | – | Oc1ccc2cnc(Nc3ccc(N4CCNCC4)cc3)nc2c1C1CCCC1 | 0.082 µM
> 5 µM | – | – | 0.63 | – | Cc1cc(=O)n(C2CCCC2)c2nc(Nc3ccc(N4CCNCC4)cc3)ncc12 | –
– | – | – | – | – | COc1ccc2cnc(Nc3ccc(N4CCOCC4)cc3)nc2c1C1CCCC1 | 0.384 µM
0.761 µM | 0.001 µM | 0.27 µM | – | – | Oc1ccc2cnc(Nc3ccc(N4CCNCC4)c(F)c3)nc2c1C1CCCC1 | 0.112 µM

Structure (SMILES) | IC50 [1] | IC50 [3] | IC50 [4] | logD [5] | IC50 [6] | IC50 [2]
COc1ccc2cnc(Nc3ccc(N4CCC(N)C4)cc3)nc2c1C1CCCC1 (stereo unspecified) | – | – | 0.775 µM | – | – | 0.203 µM
COc1ccc2cnc(Nc3ccc(N4CCCC4)cc3)nc2c1C(C)C | > 5 µM | – | > 5 µM | – | – | 1.6 µM
COc1ccc2cnc(Nc3ccc(N4CCCCC4)cc3)nc2c1C1CCCC1 | > 5 µM | – | > 5 µM | – | – | 0.384 µM
COc1ccc2cnc(Nc3ccc(N4CCCCC4)cc3)nc2c1C(C)C | > 5 µM | – | – | – | – | 0.41 µM
COc1ccc2cnc(Nc3ccc(N4CCCC4)cc3)nc2c1C1CCCC1 | > 5 µM | – | – | – | – | > 5 µM
